The values that follow come from US20040157930A1, “Histone deacetylase enzyme-inhibiting derivatives of hydroxamic acid as new cytokine synthesis-inhibiting anti-inflammatory drugs” (priority 2001, published 2004).

The test system of assay [1] is TNFα. The assay can be described thus: TNFα inhibition test (Moreira et al.). The conditions noted are these: for IC50: read-out: TNF IC50; for TNF Potency: relative potency, compound 1 = 100.00. The assay is classed as cell-based. An excerpt:
A series of hydroxamic acid derivatives described in EP 901465 were subjected to the histone deacetylase (HDAC) and TNFα inhibition tests in accordance with the methods described by Lechner et al., Biochim Biophys. Acta 1996, 1296, 181-188 and Moreira A. L. et al., J. Exp. Med. 1993, […] respectively.

Assay [2] deals with TNFα. The assay can be described thus: LPS-stimulated PBMC cytokine production in vitro: TNFα (ECL). The assay is classed as cell-based. Conditions: Homo sapiens, LPS 10 ng/ml, 24 h. The protocol: (§1) Samples of peripheral blood or buffy coats from healthy volunteers were used. […] At the end of the treatment the pro-inflammatory cytokines TNFα, IL-1β were measured by means of an electrochemiluminescence assay (ECL) using specific commercial antibodies.

The subject of a further assay is IL-1β. The experiment in a line: LPS-stimulated PBMC cytokine production in vitro: IL-1β (ECL). The assay is classed as cell-based. Conditions: Homo sapiens, LPS 10 ng/ml, 24 h. The protocol: as §1
Assay [3] deals with IFNγ. The experiment in a line: IFNγ synthesis by PBMCs stimulated with IL-12 and IL-18 (ELISA). The assay is classed as cell-based. Conditions: Homo sapiens; PBMC, IL-12 10 ng/ml + IL-18 20 ng/ml, 48 h; read-out: IFNγ (from IL-12 + IL-18) IC50. The protocol: Cytokine IFNγ is produced by the T lymphocytes following their stimulation by pro-inflammatory cytokines, especially IL-12 and IL-18 (Dinarello C. A. and Moldawer L. L. Proinflammatory and anti-inflammatory cytokines in rheumatoid arthritis. A primer for clinicians. 2nd Edition, Amgen Inc., 2000).
At the end, the cells were stimulated for 48 hours in the presence of the compound by simultaneous addition of recombinant IL-12 (10 ng/ml) and recombinant IL-18 (20 ng/ml). The quantity of IFNγ produced was determined with a commercial ELISA assay.
Background: In an ELISA, binding on a coated surface is turned into a signal by an enzyme label.

Assay [4] has as its system IFNγ. The assay can be described thus: LPS-stimulated PBMC cytokine production in vitro: IFNγ (ELISA). The conditions noted are these: Homo sapiens, 24 h, read-out: IFNγ IC50.
Procedure: (§2) Interferon γ (IFNγ) was measured with a commercially available ELISA assay.
Assay [5] has as its system inflammatory cytokines induced by LPS. The assay can be described thus: LPS-stimulated PBMC cytokine production, summary over all cytokines. The conditions noted are these: Homo sapiens, read-out: IC50, synthesis of all the inflammatory cytokines induced by LPS.
Procedure: as §2

Each structure is given as a SMILES string.

For the molecule `CCN(CC)Cc1ccc2cc(COC(=O)Nc3ccc(C(=O)NO)cc3)ccc2c1` [Compound 1], in the assay on TNFα [1], the IC50 turned out to be 7 nM and the “TNF Potency” value was 100.00.

As to `CCN(CC)Cc1ccc2cc(CCC(=O)Nc3ccc(C(=O)NO)cc3)ccc2c1` [Compound 2], in the assay with TNFα [1], the IC50 stood at 10.2 nM and the “TNF Potency” value came to 68.75.

`CCN(CC)Cc1ccc(COC(=O)Nc2ccc(C(=O)NO)cc2)c2ccccc12` [Compound 3]: in the assay on TNFα [1], the IC50 amounted to 10.3 nM and the “TNF Potency” value was determined as 68.02.

Take `CCN(CC)Cc1ccc2cc(CNC(=O)Nc3ccc(C(=O)NO)cc3)ccc2c1` [Compound 4]: in the assay on TNFα [1], the IC50 was determined as 11.2 nM and the “TNF Potency” value came to 62.68.

As for `CCCN(CCC)Cc1ccc2cc(COC(=O)Nc3ccc(C(=O)NO)cc3)ccc2c1` [Compound 5], in the assay with TNFα [1], the IC50 amounted to 12.7 nM and the “TNF Potency” value was 55.28.

On to `O=C(Nc1ccc(C(=O)NO)cc1)OCc1ccc2c(c1)OCO2` [Compound 6], for which, in the assay with TNFα [1], the IC50 was found to be 50 nM and the “TNF Potency” value is 14.00.

On to `O=C(Nc1ccc(C(=O)NO)cc1)OCC1CCc2ccccc2C1` (centres unmarked) [Compound 7], for which, in the assay on TNFα [1], the IC50 is 65.5 nM and the “TNF Potency” value was found to be 10.68.

As to `CCCCN(CCCC)Cc1ccc2cc(COC(=O)Nc3ccc(C(=O)NO)cc3)ccc2c1` [Compound 8], in the assay with TNFα [1], the IC50 is 67.6 nM and the “TNF Potency” value was 10.32.

In the case of `O=C(Nc1ccc(C(=O)NO)cc1)OCCC12CC3CC(CC(C3)C1)C2` [Compound 9], in the assay on TNFα [1], the IC50 stood at 159 nM and the “TNF Potency” value is 4.40.

As for `O=C(Nc1ccc(C(=O)NO)cc1)OCCCc1ccccc1` [Compound 10], in the assay on TNFα [1], the IC50 came out at 159 nM and the “TNF Potency” value amounted to 4.40.

On to `O=C(Nc1ccc(C(=O)NO)cc1)OCc1ccc2ccccc2c1` [Compound 11], for which, in the assay on TNFα [1], the IC50 was 159 nM and the “TNF Potency” value came out at 4.40.

On to `O=C(Nc1ccc(C(=O)NO)cc1)OCCCc1ccccn1` [Compound 12], for which, in the assay on TNFα [1], the IC50 turned out to be 230 nM and the “TNF Potency” value worked out at 3.04.

As to `O=C(Nc1ccc(C(=O)NO)cc1)OCCCc1ccncc1` [Compound 13], in the assay with TNFα [1], the IC50 turned out to be 270 nM and the “TNF Potency” value is recorded as 2.59.

As to `O=C(CCCCc1ccccc1)Nc1ccc(C(=O)NO)cc1` [Compound 14], in the assay with TNFα [1], the IC50 was found to be 300 nM and the “TNF Potency” value is on record as 2.33.

As for `CC[N+]([O-])(CC)Cc1ccc2cc(COC(=O)Nc3ccc(C(=O)NO)cc3)ccc2c1` [Compound 15], in the assay with TNFα [1], the IC50 turned out to be 1000 nM and the “TNF Potency” value was determined as 0.70.

For the molecule `CC(/C=C/C(=O)NO)=C\[C@@H](C)C(=O)c1ccc(N(C)C)cc1` [TSA, trichostatin], the IC50 in the assay on TNFα [2] is 50 nM; in the assay on IL-1β, 100 nM; with IFNγ [3], 490 nM; with IFNγ [4], 10 nM; in assay [5] it was 50 to 200 nM.

One may read the IC50 as the concentration that gives 50% inhibition.
